Tests used:
[1] = tested on: anesthetized dog (myocardial contractile force, heart rate, arterial pressure, aortic flow); test: Ganglionic-beta blocked anesthetized dog procedure; format: in vivo; settings: for ED50: Canis lupus familiaris, iv, read-out: inotropic ED50
Procedure: Adult mongrel dogs of either sex weighing 10 to 16 kg are fasted overnight, anesthetized with pentobarbital sodium 35 mg/kg, i.v. intubated, respired with room air using a Harvard respirator, and instrumented surgically to monitor myocardial contractile force, heart rate, arterial pressure, aortic flow and EKG limb lead II. The aforesaid measurements are recorded continously on a strip chart recorder.
Myocardial contractile force is monitored by a a Walton-Brodie strain gauge sutured to the left ventricular myocardium parallel to the left anterior descending coronary artery. Arterial pressure is measured using a fluid-filled catheter attached to a pressure transducer introduced via the right femoral artery and positioned in the thoracic aorta. Mean arterial pressure is determined by electronically clamping the pulsatile pressure signal. Aortic flow is monitored using a precalibrated, noncannulating electromagnetic flow probe positioned around the thoracic aorta. Heart rate is monitored using a cardiotachometer triggered by the QRS complex of the limb lead II EKG. The right femoral vein is cannulated for intravenous infusion of drugs. Body temperature is maintained at 37±1° C.
Following a 30 min postsurgical stabilization period, control values are recorded. Myocardial depression is induced by ganglionic and beta receptor blockade. Initially, the responsiveness of the autonomic nervous system is assessed by performing a 30 sec bilateral carotid occlusion (BCO). Ten minutes later, a saline solution of isoproterenol 0.3 mcg/kg i.v. is administered to assess beta receptor integrity. Ten minutes after that, a saline solution of mecamylamine 2 mg/kg i.v. is infused, followed by a saline solution of propranolol 1 mg/kg i.v. plus 0.3 mg/kg/hr. […] Ten minutes later, the test compound or vehicle is administered intravenously in ascending doses at 30 min intervals at […] in a total volume of 3.5 ml. On completion of the experiment, both BCO and isoproterenol challenges are repeated to verify ganglionic and beta blockade.
Solutions of the most preferred compound of the present invention, 6-[3'-cyano-6'-methyl-2'-oxo(1H)pyridin-5'-yl]-3,4-dihydrocarbostyril, and milrinone, 3-cyano-6-methyl-5-(4-pyridyl)-pyridin-2-one, were administered intravenously in accordance with the procedure described above. The solutions were prepared by dissolution in PEG 200 followed by serial saline dilution to yield test doses. Test solutions of 6-[3'-cyano-6'-methyl-2'-oxo(1H)pyridin-5'-yl]-3,4-dihydrocarbostyril were prepared at doses of 3, 10 and 30 mcg (expressed as base) per kg, and solutions of milrinone were prepared at test doses of 30, 100 and 300 mcg/kg.

[2] = tested on: Peak III cAMP phosphodiesterase; test: Inhibition of Peak III cAMP phosphodiesterase activity; format: biochemical, dog; settings: fold more potent than milrinone
Text: The following in vitro method is another means for measuring the inotropic potency of the present compounds. This method is a modification of the enzyme inhibition method reported by Thompson, W. J. and Appleman, M. M., "Characterization of Cyclic Nucleotide Phosphodiesterase of Rat Tissue," J. Biological Chemistry, Vol. 246, pp. 3145-3150 (1971); and Thompson, W. J., Brooker, G. and Appleman, M. M., "Assay of Cyclic Nucleotide Phosphodiesterase with Radioactive Substrates," Methods in Enzymology, Vol. 38, pp. 205-212 (1974); and is believed to correlate to in vivo intropic activity in humans.
The test compounds are included in media comprising a radioactively labeled substrate (^3 H-cyclic nucleotide) such as adenosine 3':5'-monophosphate (cyclic AMP) and guanosine-3':5'-monophosphate(cyclic GMP), and a non-rate-limiting amount of 5'-nucleotidease isolated from a dog heart. The inhibition of the enzyme hydrolysis of the 5'-nucleotide product of the cNUC-PDEase to the corresponding nucleoside is measured by separating the charged, unhydrolyzed substrate from the uncharged hydrolysis product. Separation may be acheived either chromatographically from the uncharged nucleoside product of the assay with ion-exchange resin or preferentially quenched with the ion-exchange resin so that it is not quantitated with the liquid scintillation counter.

[3] = 100 mcg/kg i.v., ganglionic-beta blocked anesthetized dog
[4] = ganglionic-beta blocked anesthetized dog
[5] = 30 mcg/kg i.v., ganglionic-beta blocked anesthetized dog

| SMILES | increase in contractile force [1, 3] [%] | increase in heart rate [1, 3] [%] | ED50 [1, 4] [mg/kg] | maximum decrease of mean arterial pressure ([1]; i.v., dose-related, sustained, doses of 30, 100 and 300 mcg/kg tested) [%] | increase in aortic blood flow (in words) ([1]; i.v., doses of 30, 100 and 300 mcg/kg tested) | increase in contractile force (maximum) [1, 5] [%] | increase in heart rate [1, 5] [%] | arterial blood pressure ([1]; i.v., at the doses tested (3, 10 and 30 mcg/kg)) | increase in aortic blood flow (maximum) ([1]; i.v., doses of 3, 10 and 30 mcg/kg tested) [%] | potency in Peak III phosphodiesterase inhibition relative to milrinone [2] |
| --- | --- | --- | --- | --- | --- | --- | --- | --- | --- | --- |
| Cc1[nH]c(=O)c(C#N)cc1-c1ccncc1 [milrinone, 3-cyano-6-methyl-5-(4-pyridyl)-pyridin-2-one, reference compound] | 111 | 19 | 0.05 | 32 | only transiently at low dose |  |  |  |  |  |
| Cc1[nH]c(=O)c(C#N)cc1-c1ccc2c(c1)CCC(=O)N2 [6-[3'-Cyano-6'-methyl-2'-oxo(1H)pyridin-5'-yl]-3,4-dihydrocarbostyril] |  |  | 0.016 |  |  | 97 | 17 | not altered | 51 | about twelve |

— US4785005A, “6-(6-alkylpyridone)-carbostyril compounds and their cardiotonic uses” (Rorer Pharmaceutical Corporation, priority 1986, dated 1988)
